We go through 18 compounds from patent US7217734B2, “Substituted benzopyrans as selective estrogen receptor-beta agonists” (Eli Lilly and Company, priority 2001, dated 2007).

This experiment deals with T1, ERbeta Receptor (Homo sapiens, UniProt Q92731).
T1 construct: purchased Pan Vera
The experiment can be described thus: Competition ER binding assay (3H-Estradiol), ER beta. Conditions: ratio of Ki ER alpha to Ki ER beta; Ki from IC50 by Cheng-Prusoff equation. The procedure: The competition ER binding assay was run in a buffer containing 50 mM N-[2-hydroxyethyl]piperazine-N′-[2-ethanesulfonic acid (Hepes) pH 7.5, 1.5 mM EDTA, 150 mM NaCl, 10% glycerol, 1 mg/mL ovalbumin, 5 mM DTT, 0.025 μCi per well of ^3H-Estradiol (NEN #NET517 at 118 Ci/mmol, 1 mCi/mL), and 10 ng/well ERAlpha or ERbeta Receptor (Pan Vera). Competing compounds were added at 10 different concentrations. Non-specific binding was determined in the presence of 1 μM of E2 (17-β Estradiol, Sigma, St. Louis, Mo.). The binding reaction (140 μL) was incubated for 4 hours at room temperature, then 70 μL of cold dextran coated charcoal (DCC) buffer was added to each reaction (DCC buffer was prepared by adding 0.75 g of charcoal [Sigma] and 0.25 g of dextran [Pharmacia] per 50 mL of assay buffer). The incubation plates were mixed for 8 minutes on an orbital shaker at 4° C. and then centrifuged at 3,000 rpm for 10 minutes at 4° C. An aliquot of 120 μl of the mix was transferred to another 96-well, white flat bottom plate (Costar) and 175 μl of Wallac Optiphase Hisafe 3 scintillation fluid was added to each well. The plates were sealed and then shaken vigorously on an orbital shaker. After an incubation of 2.5 hrs, the radioactivity was counted in a Wallac Microbeta counter. […] The Kd for ^3H-Estradiol was determined by saturation binding to ERα and ERβ receptors. The IC50 values for compounds were converted to Ki values using the Cheng-Prusoff equation and the Kd values were determined by saturation binding assay.

The structures appear in SMILES notation.

T1 sequence (Q92731 whole entry): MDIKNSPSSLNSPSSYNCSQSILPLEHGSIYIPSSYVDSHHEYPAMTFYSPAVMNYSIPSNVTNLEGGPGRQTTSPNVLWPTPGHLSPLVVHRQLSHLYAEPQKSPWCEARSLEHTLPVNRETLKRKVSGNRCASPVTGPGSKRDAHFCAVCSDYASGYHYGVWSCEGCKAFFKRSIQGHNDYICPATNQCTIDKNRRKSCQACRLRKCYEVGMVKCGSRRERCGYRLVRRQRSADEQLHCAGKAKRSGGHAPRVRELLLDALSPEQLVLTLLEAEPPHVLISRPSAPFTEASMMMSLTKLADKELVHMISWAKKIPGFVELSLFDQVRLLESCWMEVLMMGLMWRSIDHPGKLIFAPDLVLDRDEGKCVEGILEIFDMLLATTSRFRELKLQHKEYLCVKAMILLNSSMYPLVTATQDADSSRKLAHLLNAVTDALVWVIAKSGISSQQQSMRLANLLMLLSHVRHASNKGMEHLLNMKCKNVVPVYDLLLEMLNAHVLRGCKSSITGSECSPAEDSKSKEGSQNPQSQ

`Oc1ccc([C@H]2Oc3ccc(F)cc3[C@H]3CCC[C@H]32)cc1` (racemic) [Example 4, (^+)-2-(4-hydroxyphenyl)-6-fluoro-cyclopentyl[c]3,4-dihydro-2H-1-benzopyran]: the “Ki (nM) ER alpha/Ki (nM) ER beta” value is given as 4.7.
Turning to `CC[C@]1(c2ccc(O)cc2)Oc2ccc(O)cc2[C@@H]2CCC[C@@H]21` [Example 29, (^+)-2-ethyl-2-(4-hydroxyphenyl)-6-hydroxy-cyclopentyl[c]3,4-dihydro-2H-1-benzopyran], the “Ki (nM) ER alpha/Ki (nM) ER beta” value was determined as 1.3.
With `Cc1cc([C@@H]2Oc3ccc(O)cc3[C@H]3CCC[C@H]32)ccc1O` (racemic) [Example 14, (^+)-2-(4-hydroxy-3-methylphenyl)-6-hydroxy-cyclopentyl[c]3,4-dihydro-2H-1-benzopyran] the figure was 2.6; with `Cc1cc2c(cc1O)[C@H]1CCC[C@H]1[C@@H](c1ccc(O)cc1)O2` (racemic) [Example 19, (^+)-2-(4-hydroxyphenyl)-6-hydroxy-7-methyl-cyclopentyl[c]3,4-dihydro-2H-1-benzopyran], 2.0.
Turning to `COc1ccc2c(c1)[C@H]1CCC[C@H]1[C@@H](c1ccc(O)cc1)O2` (racemic) [Example 12, (^+)-2-(4-hydroxyphenyl)-6-methoxy-cyclopentyl[c]3,4-dihydro-2H-1-benzopyran], the “Ki (nM) ER alpha/Ki (nM) ER beta” value was 2.3.
For the compound `Cc1cc(O)ccc1[C@H]1Oc2ccc(O)cc2[C@H]2CCC[C@H]21` (racemic) [Example 15, (^+)-2-(2-methyl-4-hydroxyphenyl)-6-hydroxy-cyclopentyl[c]3,4-dihydro-2H-1-benzopyran], the “Ki (nM) ER alpha/Ki (nM) ER beta” value is on record as 11.
For `Cc1cc2c(cc1O)[C@H]1CCC[C@H]1[C@H](c1ccc(O)cc1)O2` (racemic) [Example 20, (^+)-2-(4-hydroxyphenyl)-6-hydroxy-7-methyl-cyclopentyl[c]3,4-dihydro-2H-1-benzopyran], the “Ki (nM) ER alpha/Ki (nM) ER beta” value was 0.6.
The value for `CC(C)[C@]1(c2ccc(O)cc2)Oc2ccc(O)cc2[C@@H]2CCC[C@@H]21` [Example 30, (+)-2-(1-methylethyl)-2-(4-hydroxyphenyl)-6-hydroxy-cyclopentyl[c]3,4-dihydro-2H-1-benzopyran] was 1.4; that for `Cc1cc([C@H]2Oc3ccc(O)cc3[C@H]3CCC[C@H]32)ccc1O` (racemic) [Example 13, (^+)-2-(4-hydroxy-3-methylphenyl)-6-hydroxy-cyclopentyl[c]3,4-dihydro-2H-1-benzopyran] was 4.4; that for `Cc1cc(O)cc2c1O[C@H](c1ccc(O)cc1)[C@@H]1CCC[C@H]21` (racemic) [Example 7, (^+)-2-(4-hydroxyphenyl)-6-hydroxy-8-meth 1-cyclopentyl[c]3,4-dihydro-2H-1-benzopyran] was 5.1.
On to `COc1cc(O)cc2c1O[C@H](c1ccc(O)cc1)[C@@H]1CCC[C@H]21` (racemic) [Example 9, (^+)-2-(4-hydroxyphenyl)-6-hydroxy-8-methoxy-cyclopentyl[c]3,4-dihydro-2H-1-benzopyran], for which the “Ki (nM) ER alpha/Ki (nM) ER beta” value is listed as 13.
The value for `CCC1(CC)CC[C@H]2[C@@H](c3ccc(O)cc3)Oc3ccc(O)cc3[C@H]21` (racemic) [Example 11, (^+)-2-(4-hydroxyphenyl)-6-hydroxy-11,11-diethyl-cyclopentyl[c]3,4-dihydro-2H-1-benzopyran] was 1.6.
With `Cc1ccc2c(c1)[C@H]1CCC[C@H]1[C@@H](c1ccc(O)cc1)O2` (racemic) [Example 3, (^+)-2-(4-hydroxyphenyl)-6-methyl-cyclopentyl[c]3,4-dihydro-2H-1-benzopyran] the figure was 1.2; with `Oc1ccc([C@@H]2Oc3ccc(O)cc3[C@H]3CCC[C@H]32)cc1` (racemic) [Example 16, (^+)-2-(4-hydroxyphenyl)-6-hydroxy-cyclopentyl[c]3,4-dihydro-2H-1-benzopyran], 1.4; with `CC1(C)CC[C@H]2[C@@H](c3ccc(O)cc3)Oc3ccc(O)cc3[C@H]21` (racemic) [Example 10, (^+)-2-(4-hydroxyphenyl)-6-hydroxy-11,11-dimethyl-cyclopentyl[c]3,4-dihydro-2H-1-benzopyran], 2.5.
Regarding `C[C@]1(c2ccc(O)cc2)Oc2ccc(O)cc2[C@@H]2CCC[C@@H]21` [Example 28, (^+)-2-methyl-2-(4-hydroxyphenyl)-6-hydroxy-cyclopentyl[c]3,4-dihydro-2H-1-benzopyran], the “Ki (nM) ER alpha/Ki (nM) ER beta” value turned out to be 4.6.
Consider `Oc1ccc([C@H]2Oc3ccc(C(F)(F)F)cc3[C@H]3CCC[C@H]32)cc1` (racemic) [Example 2, (^+)-2-(4-hydroxyphenyl)-6-trifluoromethyl-cyclopentyl[c]3,4-dihydro-2H-1-benzopyran], for which the “Ki (nM) ER alpha/Ki (nM) ER beta” value amounted to 1.4.
With `Oc1ccc([C@H]2Oc3ccc(O)cc3[C@H]3CCC[C@H]32)cc1` (racemic) [Example 1, (^+)-2-(4-hydroxyphenyl)-6-hydroxy-cyclopentyl[c]3,4-dihydro-2H-1-benzopyran] the figure was 8.0.
